Measurements: paper PMC11249824 (Clinical and Translational Science, 2024)
Marks after values point to notes of the source that are not given here.

How the values were obtained:
CYP3A4 = conditions: in vitro, preclinical observation; cited from earlier work
[1] = cited from earlier work
[2] = assay type: in vivo, healthy male subjects
Safety and tolerability = assay type: in vivo, healthy male subjects; conditions: for Abdominal pain, number of adverse events / Abdominal pain, number of subjects / Diarrhea, number of adverse events / Diarrhea, number of subjects / Headache, number of adverse events / Headache, number of subjects / Nausea, number of adverse events / Nausea, number of subjects / Number of different TEAEs / Number of subjects with at least one TEAE / Somnolence, number of adverse events / Somnolence, number of subjects / Total number of TEAEs: N = 16
ACKR3/CXCR7 = conditions: cited from earlier work
[3] = cited from earlier work; remark: listed apart in the source
[4] = attributed to sequestration by β‐cyclodextrin; cited from earlier work
[5] = Treatment A: single oral 10 mg ACT‐1004‐1239 alone, fed, geometric mean (95% CI), N = 16
[6] = Treatment A (ACT‐1004‐1239 alone)
[7] = Treatment B2 (ACT‐1004‐1239 + itraconazole)
[8] = up to and including a dose of 200 mg

O=C(N[C@H]1CCN(CC2CC2)C[C@@H]1C(=O)NC1(c2ncccn2)CC1)c1cc(-c2ccc(F)cc2F)on1 [ACT‐1004‐1239]
dependency of metabolism on CYP3A4 (CYP3A4): 94% | contribution of elimination via M1 to drug's elimination ([1]; humans, M1 plus A1 and A2): approximately 44% | unchanged drug recovered in excreta ([1]; oral 14C‐labeled ACT‐1004‐1239): 15% | AUC0−t [2, 5]: 300 (257, 352) ng * h/mL | Cmax [2, 5]: 25.6 (21.1, 31.0) ng/mL | AUC0−inf ([2]; Treatment A: single oral 10 mg ACT‐1004‐1239 alone, fed, geometric mean (95% CI), n = 10): 326 (279, 380) ^a ng * h/mL | t max ([2]; Treatment A: single oral 10 mg ACT‐1004‐1239 alone, fed, median (range), N = 16): 2.00 (0.5, 6.0) h | median of differences in t max (90% CI) ([2]; Treatment B2 (with itraconazole) vs Treatment A (alone), Hodges‐Lehmann estimate): 30 min | increase of exposure to ACT‐1004‐1239 with itraconazole versus alone ([2]; concomitant multiple doses 200 mg itraconazole (CYP3A4 inhibition)): up to 2.9 fold | Abdominal pain, number of adverse events (Safety and tolerability; [6]): 0 nAEs | Abdominal pain, number of subjects (Safety and tolerability; [6]): 0 n (%) | Diarrhea, number of adverse events (Safety and tolerability; [6]): 0 nAEs | Diarrhea, number of subjects (Safety and tolerability; [6]): 0 n (%) | Headache, number of adverse events (Safety and tolerability; [6]): 2 nAEs | Headache, number of subjects (Safety and tolerability; [6]): 1 (6.3) n (%) | Nausea, number of adverse events (Safety and tolerability; [6]): 2 nAEs | Nausea, number of subjects (Safety and tolerability; [6]): 2 (12.5) n (%) | Number of different TEAEs (Safety and tolerability; [6]): 3 nAEs | Number of subjects with at least one TEAE (Safety and tolerability; [6]): 3 (18.8) n (%) | Somnolence, number of adverse events (Safety and tolerability; [6]): 1 nAEs | Somnolence, number of subjects (Safety and tolerability; [6]): 1 (6.3) n (%) | Total number of TEAEs (Safety and tolerability; [6]): 5 nAEs | Abdominal pain, number of adverse events (Safety and tolerability; [7]): 1 nAEs | Abdominal pain, number of subjects (Safety and tolerability; [7]): 1 (6.3) n (%) | Diarrhea, number of adverse events (Safety and tolerability; [7]): 1 nAEs | Diarrhea, number of subjects (Safety and tolerability; [7]): 1 (6.3) n (%) | Headache, number of adverse events (Safety and tolerability; [7]): 1 nAEs | Headache, number of subjects (Safety and tolerability; [7]): 1 (6.3) n (%) | Nausea, number of adverse events (Safety and tolerability; [7]): 0 nAEs | Nausea, number of subjects (Safety and tolerability; [7]): 0 n (%) | Number of different TEAEs (Safety and tolerability; [7]): 3 nAEs | Number of subjects with at least one TEAE (Safety and tolerability; [7]): 3 (18.8) n (%) | Somnolence, number of adverse events (Safety and tolerability; [7]): 0 nAEs | Somnolence, number of subjects (Safety and tolerability; [7]): 0 n (%) | Total number of TEAEs (Safety and tolerability; [7]): 3 nAEs | tolerability (Safety and tolerability; all treatments, 10 mg ACT‐1004‐1239 in absence and presence of itraconazole): well‐tolerated | overall incidence of subjects with TEAEs (Safety and tolerability; in each treatment (A and B2)): 18.8% | CXCL12 plasma concentration (target engagement) (ACKR3/CXCR7): dose‐dependent increase | effect of food on exposure [3]: no effect of food | dose dependence of exposure ([3]; dose range 1–200 mg): dose‐proportional | absolute bioavailability ([3]; healthy subjects): 53% | volume of distribution ([3]; healthy subjects): 183 L | QTc liability [3, 8]: without QTc liability | safety and tolerability [3, 8]: safe and well‐tolerated

O=C(Nc1ccc(OC(F)(F)Cl)cc1)c1cnc(N2CC[C@@H](O)C2)c(-c2ccn[nH]2)c1 [asciminib]
decrease of exposure when given concomitantly with an itraconazole solution [4]: approximately 50%
